According to patent US9168259B2 (GRÜNENTHAL GMBH, priority 2010, dated 2015):

Molecular target: T1, KCNQ2/3 channels (Homo sapiens, UniProt O43525+O43526)
T1 construct: expressed in transfected cells
Assay: Fluorescence assay using a voltage sensitive dye (fluorimetry)
Type: cell-based
Details: CHO-K1 cells expressing KCNQ2/3; for Emax: CHO-K1, plateau effect relative to saturated retigabine (50 μM) = 100%, negative values = antagonistic, read-out: Fluorimetry % efficacy (retigabine = 100%); for EC50: IC50 where % efficacy is negative, read-out: Fluorimetry EC50/IC50

T1 sequence (O43526 whole entry): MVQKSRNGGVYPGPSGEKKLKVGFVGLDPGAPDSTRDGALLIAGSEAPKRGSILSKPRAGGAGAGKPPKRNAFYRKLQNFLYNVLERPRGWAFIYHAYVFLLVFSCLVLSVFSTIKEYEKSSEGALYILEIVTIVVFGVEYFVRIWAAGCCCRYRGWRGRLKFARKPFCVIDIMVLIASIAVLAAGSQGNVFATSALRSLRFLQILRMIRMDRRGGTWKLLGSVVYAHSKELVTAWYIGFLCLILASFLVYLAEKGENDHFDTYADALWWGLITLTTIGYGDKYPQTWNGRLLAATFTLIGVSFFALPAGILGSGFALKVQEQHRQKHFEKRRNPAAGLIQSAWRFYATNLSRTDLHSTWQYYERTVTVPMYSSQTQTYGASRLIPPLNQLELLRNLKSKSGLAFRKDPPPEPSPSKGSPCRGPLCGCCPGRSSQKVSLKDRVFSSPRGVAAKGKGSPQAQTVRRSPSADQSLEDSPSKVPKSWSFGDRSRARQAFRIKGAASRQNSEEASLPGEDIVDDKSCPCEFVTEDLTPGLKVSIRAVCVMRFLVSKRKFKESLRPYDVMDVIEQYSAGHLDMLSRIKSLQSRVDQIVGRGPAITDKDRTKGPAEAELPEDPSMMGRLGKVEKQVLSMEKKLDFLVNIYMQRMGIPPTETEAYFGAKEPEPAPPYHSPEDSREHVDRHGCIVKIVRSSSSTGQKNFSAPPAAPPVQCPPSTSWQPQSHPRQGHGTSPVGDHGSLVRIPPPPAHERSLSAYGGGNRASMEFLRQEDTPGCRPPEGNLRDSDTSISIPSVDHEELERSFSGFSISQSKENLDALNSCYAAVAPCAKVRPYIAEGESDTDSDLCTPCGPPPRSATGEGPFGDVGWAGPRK
T1 sequence (O43525 whole entry): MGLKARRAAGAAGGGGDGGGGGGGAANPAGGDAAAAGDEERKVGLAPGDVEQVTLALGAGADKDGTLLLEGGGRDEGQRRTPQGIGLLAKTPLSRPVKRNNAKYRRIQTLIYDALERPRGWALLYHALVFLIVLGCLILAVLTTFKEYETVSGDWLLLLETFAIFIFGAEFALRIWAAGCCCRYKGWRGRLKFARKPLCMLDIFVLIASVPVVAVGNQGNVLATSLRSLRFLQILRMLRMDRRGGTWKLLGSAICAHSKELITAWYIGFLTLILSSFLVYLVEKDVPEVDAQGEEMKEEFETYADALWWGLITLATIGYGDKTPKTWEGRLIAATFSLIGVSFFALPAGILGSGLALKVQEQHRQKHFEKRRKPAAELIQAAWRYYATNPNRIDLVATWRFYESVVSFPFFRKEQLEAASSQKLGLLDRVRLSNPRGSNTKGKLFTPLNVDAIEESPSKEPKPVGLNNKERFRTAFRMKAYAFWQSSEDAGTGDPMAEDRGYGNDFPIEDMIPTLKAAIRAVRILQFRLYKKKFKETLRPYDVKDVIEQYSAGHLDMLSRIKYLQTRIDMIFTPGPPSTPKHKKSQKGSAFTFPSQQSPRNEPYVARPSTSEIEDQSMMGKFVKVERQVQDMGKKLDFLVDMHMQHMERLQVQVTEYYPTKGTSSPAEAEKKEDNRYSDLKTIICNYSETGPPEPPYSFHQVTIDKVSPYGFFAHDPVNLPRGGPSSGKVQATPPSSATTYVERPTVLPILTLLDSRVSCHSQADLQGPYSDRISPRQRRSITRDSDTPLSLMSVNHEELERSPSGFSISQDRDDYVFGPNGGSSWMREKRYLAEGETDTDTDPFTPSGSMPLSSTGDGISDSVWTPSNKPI

Row | SMILES | Emax | EC50
1 | COc1nc(N2CCOCC2)cc(C)c1C(=O)NCc1ccc(C(F)(F)F)cc1 [Example 117, 2-Methoxy-4-methyl-6-morpholin-4-yl-N-[[4-(trifluoromethyl)-phenyl]-methyl]pyridine-3-carboxylic acid amide] | 128% | 268 nM
2 | CCOc1nc(N2CCOCC2)cc(C)c1C(=O)NCc1ccc(F)c(F)c1 [Example 91, N-[(3,4-Difluoro-phenyl)-methyl]-2-ethoxy-4-methyl-6-morpholin-4-yl-pyridine-3-carboxylic acid amide] | 127% | 117 nM
3 | CCSc1nc(N2CCOC[C@H]2C)cc(C)c1C(=O)NCc1ccc(F)c(COC)c1 [Example 352, 2-Ethylsulfanyl-N-[[4-fluoro-3-(methoxymethyl)-phenyl]-methyl]-4-methyl-6-[(3R)-3-methyl-morpholin-4-yl]-pyridine-3-carboxylic acid amide] | 166% | 287 nM
4 | CCSc1nc(N2CCOCC2)cc(C)c1C(=O)NCc1ccc(F)c(COC)c1 [Example 149, 2-Ethylsulfanyl-N-[[4-fluoro-3-(methoxymethyl)-phenyl]-methyl]-4-methyl-6-morpholin-4-yl-pyridine-3-carboxylic acid amide] | 136% | 451 nM
5 | CCC(C)c1nc(N2CCOCC2)cc(C)c1C(=O)NCCCC(C)(C)C (stereo not shown) [Example 221, N-(4,4-Dimethyl-pentyl)-4-methyl-2-(1-methyl-propyl)-6-morpholin-4-yl-pyridine-3-carboxylic acid amide] | 259% | 22 nM
6 | CCSc1nc(N2CCOCC2)cc(C)c1C(=O)NCCOC(C)(C)C [Example 83, N-(2-tert-Butoxy-ethyl)-2-ethylsulfanyl-4-methyl-6-morpholin-4-yl-pyridine-3-carboxylic acid amide] | 182% | 2800 nM
7 | Cc1cc(N2CCOC[C@H]2C)nc(C(C)C)c1C(=O)NCCCC(C)(C)C [Example 185, N-(4,4-Dimethyl-pentyl)-2-isopropyl-4-methyl-6-[(3R)-3-methyl-morpholin-4-yl]-pyridine-3-carboxylic acid amide] | 238% | 15 nM
8 | CCCc1nc(N2CCOCC2)cc(C)c1C(=O)NCc1ccc(F)c(F)c1 [Example 321, N-[(3,4-Difluoro-phenyl)-methyl]-4-methyl-6-morpholin-4-yl-2-propyl-pyridine-3-carboxylic acid amide] | 162% | 83 nM
9 | CCSc1nc(NCCOC)cc(C)c1C(=O)NCc1cccc(F)c1 [Example 36, 2-Ethylsulfanyl-N-[(3-fluorophenyl)-methyl]-6-(2-methoxy-ethylamino)-4-methyl-pyridine-3-carboxylic acid amide] | 125% | 6000 nM
10 | CCSc1nc(N2CCOCC2)cc(C)c1C(=O)NCCCC(C)(C)CO [Example 230, 2-Ethylsulfanyl-N-(5-hydroxy-4,4-dimethyl-pentyl)-4-methyl-6-morpholin-4-yl-pyridine-3-carboxylic acid amide] | 131% | 12900 nM
11 | CCSc1nc(N2CCOCC2)cc(C)c1C(=O)NCCCCC(C)(C)C [Example 116, N-(5,5-Dimethyl-hexyl)-2-ethylsulfanyl-4-methyl-6-morpholin-4-yl-pyridine-3-carboxylic acid amide] | 210% | 131 nM
12 | CCSc1nc(N2CCOCC2)cc(C)c1C(=O)NCc1ccc(F)cc1F [Example 107, N-[(2,4-Difluoro-phenyl)-methyl]-2-ethylsulfanyl-4-methyl-6-morpholin-4-yl-pyridine-3-carboxylic acid amide] | 90% | 88 nM
13 | Cc1cc(N2CCOCC2)nc(C2CC2)c1C(=O)NCc1ccc(Cl)cc1 [Example 335, N-[(4-Chlorophenyl)-methyl]-2-cyclopropyl-4-methyl-6-morpholin-4-yl-pyridine-3-carboxylic acid amide] | 162% | 85 nM
14 | Cc1cc(N2CCOCC2)nc(OCC(F)F)c1C(=O)NCc1ccc(F)cc1 [Example 272, 2-(2,2-Difluoro-ethoxy)-N-[(4-fluorophenyl)-methyl]-4-methyl-6-morpholin-4-yl-pyridine-3-carboxylic acid amide] | 96% | 78 nM
15 | CCSc1nc(N2CCOCC2)cc(C)c1C(=O)NCc1cccc(C(F)(F)F)c1F [Example 94, 2-Ethylsulfanyl-N-[[2-fluoro-3-(trifluoromethyl)-phenyl]-methyl]-4-methyl-6-morpholin-4-yl-pyridine-3-carboxylic acid amide] | 111% | 39 nM
16 | Cc1cc(N2CCOCC2)nc(C(C)C)c1C(=O)NCc1cc(F)cc(F)c1 [Example 316, N-[(3,5-Difluoro-phenyl)-methyl]-2-isopropyl-4-methyl-6-morpholin-4-yl-pyridine-3-carboxylic acid amide] | 160% | 29 nM

Row | SMILES | Emax | EC50
17 | COc1nc(N2CCOCC2)cc(C)c1C(=O)NCc1ccc(Cl)cc1 [Example 165, N-[(4-Chlorophenyl)-methyl]-2-methoxy-4-methyl-6-morpholin-4-yl-pyridine-3-carboxylic acid amide] | 135% | 230 nM
18 | Cc1cc(N2CCOC[C@H]2C)nc(C2CC2)c1C(=O)NCc1ccc(F)cc1 [Example 196, 2-Cyclopropyl-N-[(4-fluorophenyl)-methyl]-4-methyl-6-[(3R)-3-methyl-morpholin-4-yl]-pyridine-3-carboxylic acid amide] | 197% | 103 nM
19 | CCN(C)c1nc(N2CCOCC2)cc(C)c1C(=O)NCc1ccc(Cl)cc1 [Example 191, N-[(4-Chlorophenyl)-methyl]-2-(ethyl-methyl-amino)-4-methyl-6-morpholin-4-yl-pyridine-3-carboxylic acid amide] | 214% | 265 nM
20 | CCSc1nc(N2CCOCC2)cc(C)c1C(=O)NCCCC1(C)COC1 [Example 343, 2-Ethylsulfanyl-4-methyl-N-[3-(3-methyl-oxetan-3-yl)-propyl]-6-morpholin-4-yl-pyridine-3-carboxylic acid amide] | 163% | 6840 nM
21 | CCSc1nc(N2Cc3ccccc3C2)cc(C)c1C(=O)NCc1cccc(F)c1 [Example 303, 6-(2,3-Dihydro-1H-isoindol-2-yl)-2-ethylsulfanyl-N-[(3-fluorophenyl)-methyl]-4-methyl-pyridine-3-carboxylic acid amide] | 54% | 1150 nM
22 | CCSc1nc(N2CCOCC2)cc(C)c1C(=O)NCCC(O)C(C)(C)C (stereo not shown) [Example 267, 2-Ethylsulfanyl-N-(3-hydroxy-4,4-dimethyl-pentyl)-4-methyl-6-morpholin-4-yl-pyridine-3-carboxylic acid amide] | 223% | 247 nM
23 | CCCc1nc(N2CCOCC2)cc(C)c1C(=O)NCc1ccc(F)cc1 [Example 29, N-[(4-Fluorophenyl)-methyl]-4-methyl-6-morpholin-4-yl-2-propyl-pyridine-3-carboxylic acid amide] | 185% | 236 nM
24 | Cc1cc(N2CCOCC2)nc(OCC(F)F)c1C(=O)NCc1ccc(Cl)cc1 [Example 270, N-[(4-Chlorophenyl)-methyl]-2-(2,2-difluoro-ethoxy)-4-methyl-6-morpholin-4-yl-pyridine-3-carboxylic acid amide] | 97% | 24 nM
25 | CCSc1nc(N2CC(C)OC(C)C2)cc(C)c1C(=O)NCc1cccc(F)c1 (stereo not shown) [Example 66, 6-(2,6-Dimethyl-morpholin-4-yl)-2-ethylsulfanyl-N-[(3-fluorophenyl)-methyl]-4-methyl-pyridine-3-carboxylic acid amide] | 109% | 983 nM
26 | CCSc1nc(N2CCOCC2)cc(C)c1C(=O)NCc1cccc(S(C)(=O)=O)c1 [Example 231, 2-Ethylsulfanyl-4-methyl-N-[(3-methylsulfonyl-phenyl)-methyl]-6-morpholin-4-yl-pyridine-3-carboxylic acid amide] | 61% | 10400 nM
27 | CSc1nc(N2CCOCC2)cc(C)c1C(=O)NCCCC(C)(C)C [Example 152, N-(4,4-Dimethyl-pentyl)-4-methyl-2-methylsulfanyl-6-morpholin-4-yl-pyridine-3-carboxylic acid amide] | 249% | 63 nM
28 | CCSc1nc(N(C)CC2CCCOC2)cc(C)c1C(=O)NCc1cccc(F)c1 (stereo not shown) [Example 175, 2-Ethylsulfanyl-N-[(3-fluorophenyl)-methyl]-4-methyl-6-[methyl-(tetrahydro-pyran-3-yl-methyl)-amino]-pyridine-3-carboxylic acid amide] | 114% | 870 nM
29 | CCSc1nc(N2CCOC[C@H]2C)cc(C)c1C(=O)NCc1cc(F)cc(F)c1 [Example 233, N-[(3,5-Difluoro-phenyl)-methyl]-2-ethylsulfanyl-4-methyl-6-[(3R)-3-methyl-morpholin-4-yl]-pyridine-3-carboxylic acid amide] | 196% | 70 nM
30 | CCSc1nc(N2CCOCC2)cc(C)c1C(=O)NCc1ccc(COC)c(F)c1 [Example 147, 2-Ethylsulfanyl-N-[[3-fluoro-4-(methoxymethyl)-phenyl]-methyl]-4-methyl-6-morpholin-4-yl-pyridine-3-carboxylic acid amide] | 153% | 530 nM
31 | CCSc1nc(N2CCOCC2)cc(C)c1C(=O)NCCCC1CC1 [Example 141, N-(3-Cyclopropyl-propyl)-2-ethylsulfanyl-4-methyl-6-morpholin-4-yl-pyridine-3-carboxylic acid amide] | 167% | 242 nM
32 | CCSc1nc(N2CCc3cc(C(F)(F)F)ccc3C2)cc(C)c1C(=O)NCc1cccc(F)c1 [Example 27, 2-Ethylsulfanyl-N-[(3-fluorophenyl)-methyl]-4-methyl-6-[6-(trifluoromethyl)-1,2,3,4-tetrahydro-isoquinolin-2-yl]pyridine-3-carboxylic acid amide] | 132% | 151 nM
